These results are taken from paper PMC3726613, “Bacterial Cyclic AMP-Phosphodiesterase Activity Coordinates Biofilm Formation” (PLoS ONE, 2013).

The assay concerns the target T1, CpdS (SMA3506), CpdS-His8 (Serratia ureilytica, UniProt A0A9X9G1H8).
T1 construct: gene cpdA
Put plainly: bis-pNPP hydrolysis assay. Format: biochemical. The following applies: read-out: 50% reduction in the activity.

T1 sequence (A0A9X9G1H8 entry or part of it): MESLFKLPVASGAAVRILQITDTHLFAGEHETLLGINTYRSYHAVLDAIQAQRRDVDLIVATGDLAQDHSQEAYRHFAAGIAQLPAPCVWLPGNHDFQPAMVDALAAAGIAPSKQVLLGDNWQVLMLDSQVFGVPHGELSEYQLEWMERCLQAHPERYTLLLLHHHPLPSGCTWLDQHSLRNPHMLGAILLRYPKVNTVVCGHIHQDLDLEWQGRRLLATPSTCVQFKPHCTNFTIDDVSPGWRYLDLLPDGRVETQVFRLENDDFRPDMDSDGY

For `CC(C)Cn1c(=O)n(C)c(=O)c2[nH]cnc21` [IBMX], the IC50 was found to be 4.8 mM.
